# From patent US20060240032A1, “Immunomodulating compositions and methods for use in the treatment of human autoimmune diseases” (priority 2005, published 2006)
# Where two headings read alike, the source gives them in different places. No end group written: not given here.
# Experiments:
# diabetes in NOD mice = settings: cited from earlier work
# [1] = system: adoptively transferred EAE in SJL mice; test: EAE induced by adoptive transfer of PLP(139-151) specific T-cell lines into naive SJL mice; format: in vivo; settings: for additional (relapsing) episodes of EAE: adoptive transfer recipients, treatment initiated after clinical signs of EAE
# From the text: The T-cell lines employed for these studies were derived from SJL mice previously immunized with 139CFA. The T-cell lines are used for adoptive transfer studies following the third round of antigen-stimulation in vitro. The source of antigen presenting cells is irradiated syngeneic thymus cells. This is a procedure that is routinely used by other investigators and is known by those of skill in the art (Bourdette, Vandenbark et al. 1989).
# We treated some of the cell recipients with 50 micrograms 139MAP on three consecutive days with treatment initiated after the development of clinical signs of EAE. […] This is very clear in vivo data showing the 139MAP-associated inhibition of rEAE in the SJL mouse model. The 139MAP reagent inhibits the progression of clinically apparent disease as well as the onset and the continued development of EAE in both the actively-induced as well as the adoptively-transferred forms of EAE.
# EAE in SJL mice = EAE in SJL mice immunized with PLP(139-151) in CFA (139CFA), treatment after immunization before disease; format: in vivo; settings: for development of clinical signs of EAE: intraperitoneal or subcutaneous, days 2, 7 and 10 after 139CFA
# From the text: For all of these studies, MAP octamers of the 139-151aa peptide of proteolipid protein (PLP) were used and prepared by solid phase peptide synthesis as described above in the Materials and Methods. Each PLP(139-151) MAP octamer is comprised of eight polypeptide chains of the 139-151 aa of PLP each covalently linked to a central core as shown in FIG. 1. The general structure of the MAP (FIG. 1) is therefore dissimilar to the linear array typical of the peptide multimers used by others in the prior art (Falk, Rotzschke et al. 2000; Falk, Rotzschke et al. 2000; Stienekemeier, Falk et al. 2001). MAPs are also referred to as dendrimers to emphasize the branched nature of their structure (Bracci, Falciani et al. 2003). Initial studies with the 139-151 PLP MAP octamers (139MAP) used SJL mice that were first immunized with the encephalitogenic 139-151 PLP peptide in CFA (139CFA) and subsequently injected with saline solutions of 139MAP. […] For this initial study, mice were treated by intraperitoneal or subcutaneous injection with 139MAP on days 2, 7 and 10 following 139CFA injection.
# [2] = system: relapsing EAE (rEAE) in SJL mice; settings: for relapses (rEAE): 100 microgram doses on two consecutive days after clinical disease evident
# Experimental: Animals are graded as grade 1 when the first sign of disease is evident which is a flaccid tail.
# The 139MAP-treated animals were given 100 microgram doses of 139MAP on two consecutive days. […] All reagents were administered on two consecutive days after clinical disease was evident.
# [3] = system: PLP(139-151) peptide specific T-cell lines; test: Proliferation of encephalitogenic T-cell line in response to antigen in vitro; format: cell-based; settings: T-cell line from 139CFA-immunized SJL mice
# [4] = system: antigen specific lymphocytes; test: Additional studies on lymphoid traffic after 139MAP treatment; format: in vivo
# [5] = system: PLP(178-191) induced rEAE in SJL mice; test: EAE in SJL mice immunized with PLP(178-191) in CFA (antigen specificity); format: in vivo; settings: for disease development: SJL mice immunized with PLP(178-191) in CFA, treated days 2, 7 and 10 (FIG. 5)
# From the text: The relapsing disease that develops in SJL mice is thought to occur due to the immune response that develops against additional encephalitogenic determinants found in PLP and MBP (Cross, Tuohy et al. 1993). […] Immunization of SJL mice with the PLP(178-191) peptide in CFA caused the development of clinically apparent disease 12-14 days following immunization. […] FIG. 6 represents a second experiment (4 animals per group) in which mice treated with 139MAP after they developed initial signs of EAE due to immunization with the PLP(178-191) peptide.
# EAE in Lewis rats = EAE in Lewis rats injected with gpMBP in CFA, treatment with saline solution of octamer or monomer; format: in vivo; settings: 4 and 8 days after gpMBP-CFA
# From the text: Experimental autoimmune encephalomyelitis (EAE) in the rat is an acute paralytic disease from which most animals spontaneously recover. The disease can be induced in susceptible inbred Lewis and DA rats with myelin basic protein (MBP), or encephalitogenic MBP peptides administered in complete Freund's adjuvant (CFA). The disease can be adoptively transferred to syngeneic recipients with primed T cells that have been reactivated in vitro with antigen. Studies of EAE in susceptible rats have provided many important insights into the interactions of T cells and accessory cells that culminate in the induction of the autoimmune response.
# The influence of a saline solution of the 72-85gpMBP octamer on the course of EAE in Lewis rats previously injected with gpMBP emulsified in CFA was investigated. We injected 10 or 50 micrograms of the 72-85 gpMBP octamer into Lewis rats 4 and 8 days after they had been injected with gpMBP-CFA. […] Rats that received an equivalent amount of the 72-85 amino acid gpMBP peptide monomer at day 4 and day 8 developed clinical signs of disease.
substance,measurement,setting,value
B(9-23): peptide of residues 9-23 of the insulin B chain (SEQ ID NO:2) (SHLVEALYLVCGERG),anaphylaxis,diabetes in NOD mice; peptide therapy,development of anaphylaxis
same,onset and incidence of diabetes,diabetes in NOD mice; subcutaneous or intranasal administration,marked delay in the onset and a decrease in the incidence of diabetes
"139MAP: chemically synthesized octamer of PLP 139-151 peptide (HSLGKWLGHPDKF, SEQ ID NO:8), each linked through KKKKKGG spacer to a lysine-branched core (also: octamer, each linked via KKKKKGG spacer to lysine-branched core (MAP))",continued development of the first episode of disease,"[1]; 50 micrograms on three consecutive days, initiated after clinical signs of EAE",inhibited the continued development of the first episode of disease
same,development of adoptively transferred EAE and subsequent relapses,"[1]; administered prior to onset of disease or at first indication of disease (tail flaccidity), data not shown",completely inhibited
same,additional (relapsing) episodes of EAE,[1],no or very modest signs of additional episodes of EAE
same,additional (relapsing) episodes of EAE,[1]; listed as MAP139 octamer,inhibits the development of rEAE
same,development of clinical signs of EAE,"EAE in SJL mice; SJL mice, 20 micrograms",Virtually all signs of disease were prevented
same,development of clinical signs of EAE,"EAE in SJL mice; SJL mice, 100 micrograms",Virtually all signs of disease were prevented
same,diminution of EAE,"EAE in SJL mice; SJL mice, three injections of 5 micrograms after 139CFA (FIG. 3)",considerable diminution of EAE
same,relapses (rEAE),[2],inhibited the relapse component of this disease
same,subsequent course of disease,[2]; 100 microgram doses on two consecutive days after clinical disease evident (grades 1-3),profound and immediate influence on the subsequent course of disease
same,relapses (rEAE),[2]; listed as MAP139 octamer,effectively inhibits rEAE
same,T-cell line proliferation in response to antigen,[3],proliferated in response
same,lymphoid traffic to the autoimmune target organ,[4],alters lymphoid traffic to the autoimmune target organ
same,disease development,[5],no significant inhibition of disease development
same,disease development,[5]; listed as MAP139 octamer,does not inhibit the development of PLP(178-191) induced rEAE
same,development of relapses,"[5]; SJL mice immunized with PLP(178-191), treated after initial signs of EAE",inhibits the development of relapses
"72-85 amino acid gpMBP peptide monomer: monomer of the 72-85 amino acid peptide of guinea pig myelin basic protein (LPQKSQRSQDENPV; UniProt P25188 72-85, looked up, fragment) [reference compound]",clinical signs of EAE,EAE in Lewis rats; 10 micrograms,No diminution of the signs of clinical disease
same,clinical signs of EAE,EAE in Lewis rats; 50 micrograms,modest diminution of the clinical signs of EAE
72-85 gpMBP octamer: chemically synthesized octamers of the 72-85 amino acid peptide of guinea pig myelin basic protein (SEQ ID NO:7) (LPQKSQRSQDENPV; also: octamer on lysine-branched core),additional (relapsing) episodes of EAE,[1],developed a relapsing episode of clinically severe EAE
same,clinical signs of EAE,EAE in Lewis rats; 10 micrograms,developed less severe disease compared to the control group
same,clinical signs of EAE,EAE in Lewis rats; 50 micrograms,did not develop any signs of clinical disease
same,development of EAE disease,"EAE in SJL mice; SJL mice immunized with 139CFA, control octamer, dose not stated (FIG. 3)",had no effect of the development of EAE disease
